Here are results for 3 compounds from patent US20060168668A1, “Phosphodiesterase 2a and methods of use” (Memory Pharmaceuticals Corporation, priority 2003, published 2006).

Type in all cases: biochemical
In assay [1] the target is T1, recombinant human PDE2A4 (Homo sapiens, UniProt O00408, P38L/T213A/V664A).
T1 construct: made in house; host or cells: QM-7 cells (quail myoblast line), transient transfection, crude cell lysate
The experiment in a line: Inhibition of recombinant human PDE2A4 enzyme activity (QM7 lysate). Conditions: QM7 lysate containing recombinant human PDE2A4. As to the method: FIG. 3. EHNA inhibition of hsPDE2A4 activity. QM7 lysate containing recombinant human PDE2A4 was used in inhibition assay with increased concentration of inhibitors (EHNA and Rolipram; 10^−9-10^−[…]). The data and graph were analyzed and generated using Prism software.
(§1) To express in active form, human PDE2A4 cDNA was cloned downstream of the CMV promoter into pcDNA3.1/V5-His-TOPO vector, and the plasmid was transiently transfected into QM-7 cells by lipofectamine-plus reagent (Invitrogen). Forty-eight hours after the transfection, the QM-7 cells were lysed in buffer containing 50 mM Tris/HCl, 10 mM NaCl, 5 mM EGTA, 1 mM EDTA, 1 mM DTT and proteinase inhibitor cocktail (Roche). The cell lysate was used as a source for recombinant hsPDE2A4 enzyme.
(§2) The enzyme activity assay was performed according to Thompson et al, Ann N Y Acad Sci, 185:36-41 (1971) and Alvarez et al, Anal Biochem, 203:76-82 (1992) in the presence of 50 mM Tris/HCl, pH 8.0, 5 mM MgCl2, 4 mM 2-mercaptoethanol and 0.3 mg/ml BSA. […] The experiments were performed in duplicates for each substrate concentration. The Km and Vmax were calculated with Michaelis-Menten equation on Prism software.

For assay [2], the target named is T1, recombinant human PDE2A4. The experiment in a line: Enzyme activity assay, Km and Vmax of human PDE2A4 for cAMP and cGMP. As to the method:
as §1, §2

In assay [3] the target is T1, recombinant human PDE2A4. The assay is described as follows: cGMP stimulation of hsPDE2A4 cAMP-hydrolyzing activity. Conditions: 10 μM cGMP; cAMP substrate 30 μM ([3H]-cAMP/cAMP). Here is the method:
FIG. 4. cGMP stimulation of hsPDE2A4 activity. QM7 lysate containing recombinant human PDE2A4 was used in stimulation assay. […] The enzyme activities in the absence or presence of 10 μM cGMP were compared. Data analysis was performed using Prism software.
as §1, §2
The enzymatic activity of recombinant human PDE2A4 can be stimulated by cGMP, a unique characteristic for PDE2 gene family (FIG. 4).

The mark [4] stands for this setting: substrate of human PDE2A4, QM-7 cell lysate, Michaelis-Menten, Prism.

T1 sequence (O00408 1-932 isoform O00408-4 P29L/T204A/V655A): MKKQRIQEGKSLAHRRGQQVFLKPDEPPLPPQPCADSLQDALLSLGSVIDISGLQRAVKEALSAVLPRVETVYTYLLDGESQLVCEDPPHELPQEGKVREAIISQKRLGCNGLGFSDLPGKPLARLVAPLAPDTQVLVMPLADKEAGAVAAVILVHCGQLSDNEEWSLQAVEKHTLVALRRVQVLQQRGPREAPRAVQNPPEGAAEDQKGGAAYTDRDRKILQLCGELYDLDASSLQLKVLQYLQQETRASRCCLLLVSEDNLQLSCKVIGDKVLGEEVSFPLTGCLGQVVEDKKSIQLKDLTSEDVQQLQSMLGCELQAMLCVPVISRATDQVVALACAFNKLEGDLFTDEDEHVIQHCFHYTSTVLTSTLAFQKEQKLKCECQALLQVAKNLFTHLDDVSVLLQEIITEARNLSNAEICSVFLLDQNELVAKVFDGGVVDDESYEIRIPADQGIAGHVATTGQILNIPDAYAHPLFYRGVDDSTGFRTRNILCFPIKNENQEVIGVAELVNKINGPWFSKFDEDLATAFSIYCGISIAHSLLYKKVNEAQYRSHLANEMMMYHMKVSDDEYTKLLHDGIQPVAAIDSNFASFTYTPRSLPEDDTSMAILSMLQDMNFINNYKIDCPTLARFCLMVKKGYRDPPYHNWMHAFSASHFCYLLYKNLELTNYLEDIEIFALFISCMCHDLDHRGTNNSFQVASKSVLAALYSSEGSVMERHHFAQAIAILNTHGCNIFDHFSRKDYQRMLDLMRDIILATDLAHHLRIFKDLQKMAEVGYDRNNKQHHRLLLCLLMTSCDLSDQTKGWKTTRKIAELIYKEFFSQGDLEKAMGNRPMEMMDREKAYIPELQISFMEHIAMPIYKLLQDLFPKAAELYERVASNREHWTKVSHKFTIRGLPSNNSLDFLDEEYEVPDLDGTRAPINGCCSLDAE

In the case of `CCCCCCC(C(C)O)n1cnc2c(N)ncnc21` (stereo not drawn) [EHNA, erythro-9-(2-hydroxy-3-nonyl)adenine], in assay [1] (inhibitors 10^−9-10^−4 μM, read-out: IC50, inhibition of enzymatic activity of recombinant human PDE2A4), the IC50 was 1100 nM.
Take `COc1ccc(C2CNC(=O)C2)cc1OC1CCCC1` (stereo not drawn) [Rolipram]: in assay [1] (inhibitors 10^−9-10^−4 μM (FIG. 3)), the “inhibitory effect on human PDE2A4 enzyme activity” value is “no inhibitory effect”.
With `Nc1nc2c(ncn2[C@@H]2O[C@@H]3COP(=O)(O)O[C@H]3[C@H]2O)c(=O)[nH]1` [cGMP, cyclic guanosine 5′ monophosphate], in assay [2] (cGMP versus cAMP), the “affinity of human PDE2A4 for cGMP relative to cAMP” value is recorded as around 2 fold. Further, in assay [2] (setting [4]), the Km worked out at 17.5 µM and the Vmax result was “Vmax = 334.4 ± 16.0 pmol/mg/min”. For the same compound, the “stimulation of activity for hydrolyzing cAMP” value in assay [3] was “elevated more than three-fold”.

Broadly, the IC50 is the point on the concentration scale where inhibition reaches its midpoint. What is called Km is the substrate concentration at which the rate is half of its maximum.
